The values that follow come from patent US11976072B2, “Diacylglycerol kinase modulating compounds” (priority 2021, dated 2024).

Read-outs that look alike come from different tables or passages of the source.

Test [1] addresses human DGKα (Homo sapiens, UniProt P23743). The test can be described thus: DGKα Biochemical Activity Assay (ADP-Glo).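 Further: luminescent detection of ADP produced as DGKα phosphorylates DAG to phosphatidic acid, IC50 from four-parameter nonlinear curve fit.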 As to conditions: recombinant DGKα 1 nM, 100 μM ATP, 18:1 DAG/POPS/octylglucoside micelles, 1 hour at 25° C.; geometric mean; read-out: HTBS DGKa 1X ATP KM IC50. A general note: ADP-Glo turns the ADP formed in a reaction into a luminescent signal.
The test system of test [2] is Jurkat NFκB-luciferase cells. The test can be described thus: Jurkat NFκB-Luciferase Assay. It counts as cell-based. As to conditions: Homo sapiens. Put shortly: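 Luminescence from One-Glo Ex, read 7 min post-addition, reports NFκB activation in Jurkat luciferase reporter cells. Cells, diluted to 1 million cells/ml in 10% FBS RPMI, were dispensed onto plates holding compound and washed, pre-bound antibody.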

Setting [3] is: Jurkat NFκB-luciferase cells activated with anti-CD3 antibody (OKT3), 2.5 hrs at 37° C., geometric mean, read-out: DGK NFKb Luciferase EC50.
[4] abbreviates: Jurkat, […], read-out: DGK NFKb Luciferase EC50 (nM).

Chain of human DGKα (P23743 whole entry): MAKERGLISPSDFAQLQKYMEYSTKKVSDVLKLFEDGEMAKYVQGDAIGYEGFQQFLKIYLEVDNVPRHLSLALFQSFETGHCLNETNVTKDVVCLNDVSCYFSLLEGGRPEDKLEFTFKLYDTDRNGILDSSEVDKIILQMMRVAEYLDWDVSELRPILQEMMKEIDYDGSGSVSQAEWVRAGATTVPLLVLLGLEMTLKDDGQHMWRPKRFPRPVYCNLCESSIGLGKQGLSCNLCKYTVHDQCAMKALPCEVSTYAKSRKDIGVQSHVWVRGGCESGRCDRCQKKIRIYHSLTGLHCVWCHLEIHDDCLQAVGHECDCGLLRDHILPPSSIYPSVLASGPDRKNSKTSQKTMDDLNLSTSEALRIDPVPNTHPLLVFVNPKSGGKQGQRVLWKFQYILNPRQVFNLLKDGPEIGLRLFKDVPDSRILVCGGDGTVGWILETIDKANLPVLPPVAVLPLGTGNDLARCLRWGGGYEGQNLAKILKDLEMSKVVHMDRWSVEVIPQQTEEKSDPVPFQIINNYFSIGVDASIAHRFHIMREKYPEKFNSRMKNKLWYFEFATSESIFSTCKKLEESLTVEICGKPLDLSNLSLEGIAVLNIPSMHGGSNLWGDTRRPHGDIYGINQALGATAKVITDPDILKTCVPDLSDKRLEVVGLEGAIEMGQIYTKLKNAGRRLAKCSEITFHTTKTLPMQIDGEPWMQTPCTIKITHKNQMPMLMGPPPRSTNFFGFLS

Turning to `Cc1nnc2nc(N3CCOCc4c(C#CC5(C)CC5)cccc43)c3c(F)c(F)ccc3n12` [Example 196, 1-(6,7-Difluoro-1-methyl-[1,2,4]triazolo[4,3-a]quinazolin-5-yl)-6-((1-methylcyclopropyl)ethynyl)-1,2,3,5-tetrahydrobenzo[e][1,4]oxazepine], the IC50 – broadly, the concentration that gives 50% inhibition – in test [1] came out at 2.49 nM. The EC50 (in general, the concentration at which the effect is half-maximal) in test [2] (setting [3]) was 0.545 nM.
For `Cc1nnc2nc(N3CCCc4c(C#CC5(C(F)(F)F)CC5)cncc43)c3c(F)c(F)ccc3n12` [Example 88, 6,7-difluoro-1-methyl-5-(5-((1-(trifluoromethyl)cyclopropyl)ethynyl)-3,4-dihydro-1,7-naphthyridin-1(2H)-yl)-[1,2,4]triazolo[4,3-a]quinazoline], the half-maximal inhibitory concentration (IC50) in test [1] came to 10.6 nM. In test [2] (setting [3]), the EC50 was found to be 1.14 nM.
On to `CC(C)(C#Cc1cccc2c1COCCN2c1nc2nnc(N)n2c2cccc(F)c12)C(F)(F)F` [Example 124, 6-fluoro-5-(6-(4,4,4-trifluoro-3,3-dimethylbut-1-yn-1-yl)-2,3-dihydrobenzo[e][1,4]oxazepin-1(5H)-yl)-[1,2,4]triazolo[4,3-a]quinazolin-1-amine], for which the IC50 in test [1] was 16.8 nM. Moreover, the EC50 in test [2] (setting [3]) turned out to be 0.781 nM.
For `Fc1ccc2c(c(N3CCCc4c(C#CC5(C(F)F)CC5)cncc43)nc3nncn32)c1F` [Example 15, 5-(5-((1-(difluoromethyl)cyclopropyl)ethynyl)-3,4-dihydro-1,7-naphthyridin-1(2H)-yl)-6,7-difluoro-[1,2,4]triazolo[4,3-a]quinazoline], in that order: 7.16 nM and 1.91 nM.
For `Cc1nnc2nc(N3CCCc4c(C#CC(C)(C)C(F)(F)F)cncc43)c3c(F)c(F)ccc3n12` [Example 90, 6,7-difluoro-1-methyl-5-(5-(4,4,4-trifluoro-3,3-dimethylbut-1-yn-1-yl)-3,4-dihydro-1,7-naphthyridin-1(2H)-yl)-[1,2,4]triazolo[4,3-a]quinazoline], the IC50 in test [1] is 29.3 nM. For the same compound, the EC50 in test [2] (setting [3]) is 1.88 nM.
For `Cc1nnc2nc(N(CC(F)F)c3cc(F)cc(C#CC(C)(C)O)c3)c3c(F)cc(Cl)cc3n12` [Example 104, 4-(3-((8-chloro-6-fluoro-1-methyl-[1,2,4]triazolo[4,3-a]quinazolin-5-yl)(2,2-difluoroethyl)amino)-5-fluorophenyl)-2-methylbut-3-yn-2-ol], in that order: 8.06 nM and 8.95 nM.
The matching figures for `Cc1nnc2nc(N3CCOCc4c(C#CC(C)(C)C(F)F)cccc43)c3c(F)cccc3n12` [Example 190, 6-(4,4-Difluoro-3,3-dimethyl-but-1-ynyl)-1-(6-fluoro-1-methyl-[1,2,4]triazolo[4,3-a]quinazolin-5-yl)-3,5-dihydro-2H-4,1-benzoxazepine]: 6.91 nM and 1.46 nM.
The matching figures for `Cc1nnc2nc(N3CCCc4c(C#CC5(C(F)F)CC5)cccc43)c3c(Cl)c(F)ccc3n12` [Example 35, 6-chloro-5-[5-[2-[1-(difluoromethyl)cyclopropyl]ethynyl]-3,4-dihydro-2H-quinolin-1-yl]-7-fluoro-1-methyl-[1,2,4]triazolo[4,3-a]quinazoline]: 5.44 nM and 1.14 nM.
On to `Fc1ccc2c(c(N3CCCc4c(C#CC5CCC5)cncc43)nc3nncn32)c1F` [Example 13, 5-(5-(cyclobutylethynyl)-3,4-dihydro-1,7-naphthyridin-1(2H)-yl)-6,7-difluoro-[1,2,4]triazolo[4,3-a]quinazoline], for which the IC50 in test [1] was 7.93 nM. Moreover, in test [2] (setting [3]), the EC50 came to 1.01 nM.
For `CC1(C#Cc2cccc3c2COCCN3c2nc3nnc(N)n3c3cccc(F)c23)CC1` [Example 127], in that order: 8.42 nM and 2.02 nM.
For `Cc1nnc2nc(N3CCCCc4c(C#CC5(C(F)(F)F)CC5)cncc43)c3cc(F)ccc3n12` [Example 3, 7-fluoro-1-methyl-5-(6-((1-(trifluoromethyl)cyclopropyl)ethynyl)-2,3,4,5-tetrahydro-1H-pyrido[3,4-b]azepin-1-yl)-[1,2,4]triazolo[4,3-a]quinazoline], in that order: 35.9 nM and 1.86 nM.
As to `Cc1nnc2nc(N3CCCc4c(C#CC(C)(C)C#N)cccc43)c3c(F)c(F)ccc3n12` [Example 240, 4-[1-(6,7-difluoro-1-methyl-[1,2,4]triazolo[4,3-a]quinazolin-5-yl)-3,4-dihydro-2H-quinolin-5-yl]-2,2-dimethyl-but-3-ynenitrile], the IC50 in test [1] amounted to 7.05 nM. In addition, the concentration giving a half-maximal response (EC50) in test [2] (setting [3]) was found to be 3.41 nM.
For `Cc1nnc2nc(N3CCCc4c(C#Cc5cnn(C)c5)cccc43)c3c(F)c(F)ccc3n12` [Example 226, 6,7-difluoro-1-methyl-5-[5-[2-(1-methylpyrazol-4-yl)ethynyl]-3,4-dihydro-2H-quinolin-1-yl]-[1,2,4]triazolo[4,3-a]quinazoline], in that order: 3.42 nM and 3.92 nM.
The matching figures for `Cc1nnc2nc(N3CCN(C)Cc4c(C#CC(C)(C)C(F)(F)F)cccc43)c3c(F)c(F)ccc3n12` [Example 168, 6,7-difluoro-1-methyl-5-[4-methyl-6-(4,4,4-trifluoro-3,3-dimethyl-but-1-ynyl)-3,5-dihydro-2H-1,4-benzodiazepin-1-yl]-[1,2,4]triazolo[4,3-a]quinazoline]: 10.4 nM and 5.41 nM.
For `Cc1nnc2nc(N3CCCCc4c(C#CC(C)(C)C#N)cccc43)c3c(F)c(F)ccc3n12` [Example 186, 4-[1-(6,7-Difluoro-1-methyl-[1,2,4]triazolo[4,3-a]quinazolin-5-yl)-2,3,4,5-tetrahydro-1-benzazepin-6-yl]-2,2-dimethyl-but-3-ynenitrile], in that order: 6.51 nM and 2.84 nM.
For the compound `Cc1cc(F)cc2c(N(CC(F)F)c3cc(F)cc(C#CC4(C(F)(F)F)CC4)c3)nc3nncn3c12` [Example 106], the IC50 in test [1] was 118 nM. The half-maximal effective concentration (EC50) in test [2] (setting [3]) was 2.53 nM.
For `Cc1nnc2nc(N3CCOCc4c(C#CC(C)(C)C(=O)NC(C)(C)C(F)(F)F)cccc43)c3c(F)c(F)ccc3n12` [Example 63, 4-(1-(6,7-difluoro-1-methyl-[1,2,4]triazolo[4,3-a]quinazolin-5-yl)-1,2,3,5-tetrahydrobenzo[e][1,4]oxazepin-6-yl)-2,2-dimethyl-N-(1,1,1-trifluoro-2-methylpropan-2-yl)but-3-ynamide], in that order: 19.4 nM and 4.17 nM.
On to `Cc1nnc2nc(N3CCCc4c(C#CC5(O)C[C@H]6C[C@H]6C5)cccc43)c3c(F)cccc3n12` (stereo partly drawn) [Example 199, (1R,5S)-3-((1-(6-fluoro-1-methyl-[1,2,4]triazolo[4,3-a]quinazolin-5-yl)-1,2,3,4-tetrahydroquinolin-5-yl)ethynyl)bicyclo[3.1.0]hexan-3-ol], for which the IC50 in test [1] stood at 3.83 nM. For the same compound, the EC50 in test [2] (setting [4]) amounted to 1.62 nM.
Consider `Cc1nnc2nc(N3CCCCc4c(C#CC(C)(C)C#N)cccc43)c3c(F)cccc3n12` [Example 188, 4-[1-(6-Fluoro-1-methyl-[1,2,4]triazolo[4,3-a]quinazolin-5-yl)-2,3,4,5-tetrahydro-1-benzazepin-6-yl]-2,2-dimethyl-but-3-ynenitrile], for which the IC50 in test [1] stood at 9.86 nM. Moreover, in test [2] (setting [3]), the EC50 worked out at 2.12 nM.
The matching figures for `COc1ccc(C#Cc2nccc3c2CCCN3c2nc3nnc(C)n3c3cccc(F)c23)cn1` [Example 75, 6-fluoro-5-(5-((6-methoxypyridin-3-yl)ethynyl)-3,4-dihydro-1,6-naphthyridin-1(2H)-yl)-1-methyl-[1,2,4]triazolo[4,3-a]quinazoline]: 28.9 nM and 3.41 nM.
Consider `CC1(C#Cc2cc(N(CC(F)F)c3nc4nncn4c4c(Cl)cc(F)cc34)ccn2)CC1` [Example 61, 9-chloro-N-(2,2-difluoroethyl)-7-fluoro-N-(2-((1-methylcyclopropyl)ethynyl)pyridin-4-yl)-[1,2,4]triazolo[4,3-a]quinazolin-5-amine], for which the IC50 in test [1] is 8.48 nM. Moreover, the concentration giving a half-maximal response (EC50) in test [2] (setting [3]) is 3.36 nM.
For `Cc1nnc2nc(N(CC(F)F)c3ccnc(C#CC4(C(F)F)CC4)c3F)c3c(F)cccc3n12` [Example 44, N-(2,2-difluoroethyl)-N-[2-[2-[1-(difluoromethyl)cyclopropyl]ethynyl]-3-fluoro-4-pyridyl]-6-fluoro-1-methyl-[1,2,4]triazolo[4,3-a]quinazolin-5-amine], in that order: 3.81 nM and 7.15 nM.
`Cc1nnc2nc(N3CCCc4c(N5CCN(C(=O)OC(C)(C)C)CC5)cccc43)c3c(F)cccc3n12` [Example 161, tert-butyl 4-[1-(6-fluoro-1-methyl-[1,2,4]triazolo[4,3-a]quinazolin-5-yl)-3,4-dihydro-2H-quinolin-5-yl]piperazine-1-carboxylate]: the IC50 in test [1] came to 87.1 nM. For the same compound, the 50% effective concentration (EC50) in test [2] (setting [4]) is 5.49 nM.
With `FC(F)(F)C1(C#Cc2cccc3c2CCCN3c2nc3nncn3c3ccccc23)CC1` [Example 175, 5-[5-[2-[1-(trifluoromethyl)cyclopropyl]ethynyl]-3,4-dihydro-2H-quinolin-1-yl]-[1,2,4]triazolo[4,3-a]quinazoline], the 50% inhibitory concentration (IC50) in test [1] came to 110 nM. The EC50 in test [2] (setting [3]) was found to be 1.74 nM.
For `Cc1nnc2nc(N(CC(F)F)c3ccnc(C#CC4(C)CC4)c3)c3cc(F)ccc3n12` [Example 96, N-(2,2-difluoroethyl)-7-fluoro-1-methyl-N-(2-((1-methylcyclopropyl)ethynyl)pyridin-4-yl)-[1,2,4]triazolo[4,3-a]quinazolin-5-amine], in that order: 6.22 nM and 5.1 nM.
As to `Cc1cccc2c1c(N1CCOCc3c(C#CC4(C)CC4)cccc31)nc1nnc(C)n12` [Example 216, 1-(1,6-dimethyl-[1,2,4]triazolo[4,3-a]quinazolin-5-yl)-6-((1-methylcyclopropyl)ethynyl)-1,2,3,5-tetrahydrobenzo[e][1,4]oxazepine], in test [1], the IC50 turned out to be 24.3 nM. The half-maximal effective concentration (EC50) in test [2] (setting [3]) came to 5.42 nM.
